# Test results published in US9265747B2, “Platinum (IV) complexes for use in dual mode pharmaceutical therapy” (Massachusetts Institute of Technology, priority 2008, dated 2016).
# pIC50: −log10 of the molar value. Entries after “also recorded” stand apart in the source; their conditions may differ.
# How the values were obtained:
# [1] = tested on: NTera-2, human testicular cancer; test: MTT assay, NTera-2 cells; format: cell-based; settings: 72 hours
# Procedure: (§1) Cell Line and Cell Culture. Healthy normal fibroblast GM61869, human cancer NTera-2, human cervical cancer HeLa, human osteosarcoma cell line U2OS were obtained from the ATCC. Cells were incubated at 37° C. in 5% CO2 and grown in DMEM medium supplemented with 10% fetal bovine serum and 1% penicillin/streptomycin. Cells were passed every 3 to 4 days and restarted from the frozen stock upon reaching pass number 20.
# (§2) MTT Assay. Cytotoxic behavior of compound 1, DCA and cis-DDP were evaluated using the MTT assay. Solutions of the platinum complexes were freshly prepared in sterile PBS before use and quantitated by atomic absorption spectroscopy. Cells were seeded on a 96 well plate (1000 cells per well for NTera-2, U2OS, HeLa; 1400 per well for normal fibriblast; 500 per well for 7B, 10B, 175F and 150×2) in 100 μL DMEM media and incubated for 24 hours. The cells were then treated with compound 1, DCA or cis-DDP, separately at varying concentrations and incubated for 72 hours at 37° C. The cells were then treated with 20 μL of 3-(4,5-dimethylthiazol-2-yl)-2,5-diphenyltetrazolium bromide (MTT) (5 mg/mL in PBS) and incubated for 5 h. The medium was removed, the cells were lysed by adding 100 μl, of DMSO, and the absorbance of the purple formazan was recorded at 550 nm using a BioTek Synergy HT multi-detection microplate plate reader. Each well was performed in triplicate in three independent experiments for each cell line.
# [2] = tested on: HeLa, human cervical cancer; test: MTT assay, HeLa cells; format: cell-based; settings: 72 hours
# Procedure: as §1, §2
# [3] = tested on: A549, human lung carcinoma; test: MTT assay, A549 cells; format: cell-based; settings: 72 hours
# Procedure: [The procedure below names another cell line; the source lists this cell line under the same test.] as §2
# [4] = tested on: MCF-7, human breast adenocarcinoma; test: MTT assay, MCF-7 cells; format: cell-based; settings: 72 hours
# Procedure: [The procedure below names another cell line; the source lists this cell line under the same test.] as §2
# [5] = tested on: MRC-5, normal lung fibroblast; test: MTT assay, MRC-5 normal cells; format: cell-based, human; settings: 72 hours
# Procedure: as §2
# [6] = tested on: A2780, human ovarian carcinoma; test: MTT assay, A2780 cells; format: cell-based; settings: A2780 cisplatin sensitive cells, 72 h
# Procedure: A more negative membrane potential might promote translocation of the active, cationic form of cisplatin from the cytoplasm to mitochondria, thus diminishing platination of nuclear DNA. […] Thus, a pair of cisplatin sensitive A2780 and resistant A2780/CP70 ovarian cancer cells were studied (Table 1 and FIG. 10). […] (▴) with (A) cisplatin sensitive A2780 cells and (B) cisplatin resistant A2780/CP70 cells, after 72 h as determined by the MTT assay. The controls were cisplatin and c,c,t-[Pt(NH3)2Cl2(O2CCH3)2]. […] Results for the A2780/CP70 cells indicate that DCA plays a role, in this embodiment, in making cisplatin-resistant cells susceptible towards mitaplatin treatment.
# as §2
# [7] = tested on: human cancer NTera-2 cells; test: JC-1 mitochondrial membrane potential assay, NTera-2 cells; format: cell-based; settings: 100 μM, 4 h and 48 h
# Text: (§3) The following describes a mitochondrial membrane potential assay using compound 1. JC-1 Assay: Mitochondrial attack is associated with a drop in mitochondrial transmembrane potential (Δψm). For this reason Δψm, is an important parameter of mitochondrial function and has been used as an indicator for mitochondrial death. Variation in Δψm can be studied by evaluating the changes in fluorescence intensity of cells stained with lipophilic cationic dye, 5,5′,6,6′-tetrachloro-1,1′,3,3′-tetraethylbenzimidazolylcarbocyanine iodide (JC-1). It can selectively enter mitochondria and reversibly change color from green to red as the membrane potential increases.
# (§4) The negative charge established by the mitochondrial membrane potential allows the lipophilic dye, bearing a delocalized positive charge, to enter the mitochondria where it accumulates. When the critical concentration is exceeded, J-aggregates form, which becomes red. In apoptotic cells, the mitochondrial membrane potential collapses, and the JC-1 can not accumulate within the mitochondria. In these cells, JC-1 remains in the cytoplasm in a green fluorescent monomeric form. Apoptotic cells, showing primarily green fluorescence, are easily differentiated from the healthy cells which show mainly red fluorescence.
# (§5) JC-1 Assay. Normal and NTera-2 cells were cultured on cover slips to a density of 1×10^6 cells/mL and incubated overnight at 37° C. […]
# [8] = tested on: healthy normal fibroblast cells; test: JC-1 mitochondrial membrane potential assay, normal fibroblasts; format: cell-based; settings: 100 μM, 4 h and 48 h
# Text: as §3, §4, §5
# NTera-2 cells = test: TMRM mitochondrial membrane potential assay, NTera-2 cells; format: cell-based, human; settings: listed as compound 1
# Procedure: (§6) TMRM Assay. Analysis of mitochondrial membrane potential (Δψm) was carried out by using tetramethyl rhodamine methyl ester (TMRM). A similar procedure as mentioned above for the JC-1 assay was followed. Before fixing the cells, they were treated with 2 μM of TMRM for 30 min at 37° C.
# [9] = tested on: healthy normal fibroblast cells; test: TMRM mitochondrial membrane potential assay, normal fibroblasts; format: cell-based; settings: listed as compound 1
# Procedure: as §6
# [10] = tested on: normal fibroblasts and cancerous NTera-2 cells; test: Co-culture of normal fibroblasts and cancerous NTera-2 cells; format: cell-based, human
# Text: Cisplatin kills both NTera-2 and normal fibroblast cells
# [11] = tested on: human lung cancer A549 cells and normal human lung fibroblasts MRC-5; test: LIVE/DEAD viability assay in co-culture; format: cell-based; settings: co-culture A549 and MRC-5, exposure for 24 h
# Procedure: Studies were also conducted on a co-culture of human lung cancer A549 cells and normal human lung fibroblasts MRC-5. […] The assay allowed for the simultaneous determination of live and dead cells in a co-culture by labeling live cells with calcein AM dye, which fluoresces only when cleaved by intracellular esterase enzymes, and ethidium […] (EthD-1), which only enters dead cells with disrupted cell membranes. […] Following mitaplatin or cisplatin exposure for 24 h, cells were stained with calcein AM (green fluorescence) and ethidium homodimer-1 (red fluorescence) to differentiate between live and dead cells, respectively.
# A549 = test: Annexin-V flow cytometry, A549 cells; format: cell-based, human; settings: 10 and 20 μM, 72 h
# Procedure: (§7) In order to quantify mitaplatin-induced apoptosis in cancer cells, an Annexin-V was performed and analyzed using flow cytometry. With this analysis, the percentage of apoptotic cells found was determined at 72 h after exposure of mitaplatin and cisplatin.
# normal MRC-5 cells = test: Annexin-V flow cytometry, normal MRC-5 cells; format: cell-based, human; settings: 72 h, cisplatin at 10 μM
# Procedure: as §7
smiles,measurement,setting,value
"[NH2][Pt]([NH2])([Cl])([Cl])([O]C(=O)C(Cl)Cl)[O]C(=O)C(Cl)Cl [Mitaplatin, c,c,t-[Pt(NH3)2Cl2(O2CCHCl2)2]]",pIC50,[1],7.29
same,pIC50,[2],5.70
same,pIC50,[3],4.85
same,pIC50,[4],4.74
same,pIC50,[5],4.74
same,pIC50,[6],5.96
same,effect on mitochondria (JC-1 fluorescence),[7],attacks the mitochondria
same,effect on mitochondria (JC-1 fluorescence),[8],had no effect
same,"mitochondrial membrane potential (Δψm), TMRM",NTera-2 cells,significantly depolarizes; also recorded: reverses the hyperpolarization
same,"mitochondrial membrane potential (Δψm), TMRM",[9],had no effect; also recorded: does not change the Δψm
same,cell killing in co-culture,[10],selectively kills the cancer cells
same,"cell death in co-culture, LIVE/DEAD staining",[11],"selectively induced cell death in human cancer A549 cells, but not in normal MRC-5 cells"
same,apoptosis (Annexin-V),A549,Apoptosis was detected
same,apoptosis (Annexin-V),normal MRC-5 cells,did not show any detectable apoptosis
